Data reported in PMC6513986, “Molecular basis for heat desensitization of TRPV1 ion channels” (Nature Communications, 2019).
pEC50: −log10 of the molar value. Like-named read-outs stand apart in the source and are kept apart here.

What was measured:
mV1_654 (ANAP) = mV1_654 (ANAP) (Mus musculus, UniProt Q704Y3, Y654X); test: Agonist activation of ANAP-incorporated channel, patch clamp; assay type: cell-based
rTRPV1 = test system: rTRPV1; design: method as in Sanchez-Moreno et al; conditions: 4 μM capsaicin, ref Sanchez-Moreno et al; cited from earlier work
mV1 CΔ28 (Ala800-Ala827) = mV1 CΔ28 (Ala800-Ala827) (Mus musculus, UniProt Q704Y3, DEL800-827); test: Agonist activation, patch clamp, HEK293T; assay type: cell-based; conditions: read-out: EC50_Capsaicin
Chain of mV1 CΔ28 (Ala800-Ala827) (Q704Y3 with tags, fused parts or gaps DEL800-827): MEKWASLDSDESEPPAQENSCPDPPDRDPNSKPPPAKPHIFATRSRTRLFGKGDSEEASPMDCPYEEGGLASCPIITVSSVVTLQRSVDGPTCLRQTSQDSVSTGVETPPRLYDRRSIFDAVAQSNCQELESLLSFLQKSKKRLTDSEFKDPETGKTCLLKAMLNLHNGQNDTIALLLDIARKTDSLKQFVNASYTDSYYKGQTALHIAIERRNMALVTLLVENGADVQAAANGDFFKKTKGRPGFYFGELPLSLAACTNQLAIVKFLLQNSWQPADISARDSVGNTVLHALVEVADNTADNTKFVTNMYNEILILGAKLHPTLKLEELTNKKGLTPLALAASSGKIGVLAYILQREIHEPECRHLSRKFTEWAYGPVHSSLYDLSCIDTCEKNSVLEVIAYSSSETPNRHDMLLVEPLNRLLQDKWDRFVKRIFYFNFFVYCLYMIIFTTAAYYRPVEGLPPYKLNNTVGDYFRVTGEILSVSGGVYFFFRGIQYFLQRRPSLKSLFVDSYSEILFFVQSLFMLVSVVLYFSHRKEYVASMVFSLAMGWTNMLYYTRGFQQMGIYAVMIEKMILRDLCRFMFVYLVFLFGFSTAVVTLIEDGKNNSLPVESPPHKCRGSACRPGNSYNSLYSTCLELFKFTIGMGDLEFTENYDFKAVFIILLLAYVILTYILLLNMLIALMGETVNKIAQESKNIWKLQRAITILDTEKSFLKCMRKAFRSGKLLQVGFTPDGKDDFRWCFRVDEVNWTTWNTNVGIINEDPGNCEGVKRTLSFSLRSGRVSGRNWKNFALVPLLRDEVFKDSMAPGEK

TRPV1 = conditions: cited from earlier work
mV1_241 (ANAP) = mV1_241 (ANAP) (Mus musculus, UniProt Q704Y3, K241X); test: Agonist activation of ANAP-incorporated channel, patch clamp; assay type: cell-based
mV1 S833A = mV1 S833A (Mus musculus, UniProt Q704Y3, S833A); test: Agonist activation, patch clamp, HEK293T; assay type: cell-based; conditions: read-out: EC50_Capsaicin
Chain of mV1 S833A (Q704Y3 whole entry S833A): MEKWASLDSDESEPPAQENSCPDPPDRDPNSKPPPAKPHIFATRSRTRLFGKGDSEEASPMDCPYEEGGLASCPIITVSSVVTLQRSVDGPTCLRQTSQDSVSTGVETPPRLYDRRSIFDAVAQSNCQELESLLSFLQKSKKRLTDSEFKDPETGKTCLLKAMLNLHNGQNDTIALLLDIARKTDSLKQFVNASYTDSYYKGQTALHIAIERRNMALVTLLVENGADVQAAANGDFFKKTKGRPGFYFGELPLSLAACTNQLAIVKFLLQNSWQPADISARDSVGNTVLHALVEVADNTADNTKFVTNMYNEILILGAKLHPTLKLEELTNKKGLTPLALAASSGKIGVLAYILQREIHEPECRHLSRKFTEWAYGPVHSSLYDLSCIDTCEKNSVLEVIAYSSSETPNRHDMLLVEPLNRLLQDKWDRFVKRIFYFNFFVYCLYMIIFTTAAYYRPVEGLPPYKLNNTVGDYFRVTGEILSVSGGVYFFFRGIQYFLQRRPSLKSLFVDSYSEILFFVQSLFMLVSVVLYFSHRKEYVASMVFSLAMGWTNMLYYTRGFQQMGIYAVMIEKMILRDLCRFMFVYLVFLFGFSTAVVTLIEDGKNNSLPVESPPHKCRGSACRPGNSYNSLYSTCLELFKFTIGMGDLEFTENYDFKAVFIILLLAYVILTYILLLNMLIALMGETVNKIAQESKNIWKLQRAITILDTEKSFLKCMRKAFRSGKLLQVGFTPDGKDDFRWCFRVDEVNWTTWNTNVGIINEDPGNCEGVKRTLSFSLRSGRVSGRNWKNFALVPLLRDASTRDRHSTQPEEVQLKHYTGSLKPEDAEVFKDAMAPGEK

mV1 K831A = mV1 K831A (Mus musculus, UniProt Q704Y3, K831A); test: Agonist activation, patch clamp, HEK293T; assay type: cell-based; conditions: read-out: EC50_Capsaicin
Chain of mV1 K831A (Q704Y3 whole entry K831A): as the sequence (Q704Y3 whole entry S833A) above, with K831A, A833S counted along it

mV1_579 (ANAP) = mV1_579 (ANAP) (Mus musculus, UniProt Q704Y3, C579X); test: Agonist activation of ANAP-incorporated channel, patch clamp; assay type: cell-based
Camel TRPV1 = Camel TRPV1 (Camelus ferus, UniProt A0A8B8UHM1); test: Agonist activation, patch clamp, HEK293T; assay type: cell-based; conditions: read-out: EC50_Capsaicin
pV1_mC chimera = pV1_mC chimera (Ornithorhynchus anatinus, UniProt F7A7B4); test: Agonist activation, patch clamp, HEK293T; assay type: cell-based, platypus / mouse; conditions: read-out: EC50_Capsaicin
Chain of pV1_mC chimera (F7A7B4 1-691, stated change not applied): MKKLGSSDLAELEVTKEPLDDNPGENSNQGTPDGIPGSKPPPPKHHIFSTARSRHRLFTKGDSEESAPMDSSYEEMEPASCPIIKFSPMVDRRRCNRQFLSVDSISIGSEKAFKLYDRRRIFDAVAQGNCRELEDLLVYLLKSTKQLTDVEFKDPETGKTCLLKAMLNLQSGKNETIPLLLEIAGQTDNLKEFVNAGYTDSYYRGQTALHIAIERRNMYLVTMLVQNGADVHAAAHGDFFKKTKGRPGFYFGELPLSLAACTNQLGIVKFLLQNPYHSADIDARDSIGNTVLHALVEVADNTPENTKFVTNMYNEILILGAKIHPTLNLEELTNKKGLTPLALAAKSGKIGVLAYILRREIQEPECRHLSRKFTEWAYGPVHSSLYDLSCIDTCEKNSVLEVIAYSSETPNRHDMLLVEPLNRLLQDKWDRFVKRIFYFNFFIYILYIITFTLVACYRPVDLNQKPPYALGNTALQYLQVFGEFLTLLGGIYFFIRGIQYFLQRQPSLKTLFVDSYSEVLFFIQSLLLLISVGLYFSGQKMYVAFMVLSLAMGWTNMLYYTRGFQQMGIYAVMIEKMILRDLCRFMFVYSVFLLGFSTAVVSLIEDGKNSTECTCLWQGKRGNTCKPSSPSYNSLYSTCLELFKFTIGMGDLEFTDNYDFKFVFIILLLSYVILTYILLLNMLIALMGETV
Chain of pV1_mC chimera (Q704Y3 688-839 partner): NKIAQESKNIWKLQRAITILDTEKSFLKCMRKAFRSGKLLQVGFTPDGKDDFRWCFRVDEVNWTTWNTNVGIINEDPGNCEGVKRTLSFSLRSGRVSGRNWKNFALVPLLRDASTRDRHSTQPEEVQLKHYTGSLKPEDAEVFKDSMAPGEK

mV1_648 (ANAP) = mV1_648 (ANAP) (Mus musculus, UniProt Q704Y3, L648X); test: Agonist activation of ANAP-incorporated channel, patch clamp; assay type: cell-based
mV1 E838A = mV1 E838A (Mus musculus, UniProt Q704Y3, E838A); test: Agonist activation, patch clamp, HEK293T; assay type: cell-based; conditions: read-out: EC50_Capsaicin
Chain of mV1 E838A (Q704Y3 whole entry E838A): as the sequence (Q704Y3 whole entry S833A) above, with A833S, E838A counted along it

mouse TRPV1 (mV1) = mouse TRPV1 (mV1) (Mus musculus, UniProt Q704Y3); test: Agonist activation, patch clamp, HEK293T; assay type: cell-based; conditions: read-out: EC50_Capsaicin
Chain of mouse TRPV1 (mV1) (Q704Y3 whole entry): as the sequence (Q704Y3 whole entry S833A) above, with A833S counted along it

Polar bear TRPV1 = Polar bear TRPV1 (Ursus maritimus, UniProt A0A384CG69); test: Agonist activation, patch clamp, HEK293T; assay type: cell-based; conditions: read-out: EC50_Capsaicin
Chain of Polar bear TRPV1 (A0A384CG69 1-841): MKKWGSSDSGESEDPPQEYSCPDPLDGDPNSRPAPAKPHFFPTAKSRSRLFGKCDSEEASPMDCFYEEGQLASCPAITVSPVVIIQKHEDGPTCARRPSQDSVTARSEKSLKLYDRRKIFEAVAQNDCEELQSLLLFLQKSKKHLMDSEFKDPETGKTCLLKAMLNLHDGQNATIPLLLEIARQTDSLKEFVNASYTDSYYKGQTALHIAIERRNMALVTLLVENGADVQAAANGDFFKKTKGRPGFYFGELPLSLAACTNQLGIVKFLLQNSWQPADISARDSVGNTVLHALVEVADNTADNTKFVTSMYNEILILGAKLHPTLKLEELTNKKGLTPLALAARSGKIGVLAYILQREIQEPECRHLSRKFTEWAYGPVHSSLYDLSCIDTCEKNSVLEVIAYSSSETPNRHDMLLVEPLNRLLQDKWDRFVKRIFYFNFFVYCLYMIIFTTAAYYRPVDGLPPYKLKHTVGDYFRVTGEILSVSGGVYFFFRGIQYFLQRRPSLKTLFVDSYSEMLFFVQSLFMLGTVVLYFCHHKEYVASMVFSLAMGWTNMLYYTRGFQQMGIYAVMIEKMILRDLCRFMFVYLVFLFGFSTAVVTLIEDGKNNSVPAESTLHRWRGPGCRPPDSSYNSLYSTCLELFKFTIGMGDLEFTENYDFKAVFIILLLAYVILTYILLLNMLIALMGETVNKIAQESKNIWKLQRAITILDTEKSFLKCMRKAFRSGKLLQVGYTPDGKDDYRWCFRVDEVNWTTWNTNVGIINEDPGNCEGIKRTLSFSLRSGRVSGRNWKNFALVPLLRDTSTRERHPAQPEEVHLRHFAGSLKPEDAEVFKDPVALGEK

mV1 F830A = mV1 F830A (Mus musculus, UniProt Q704Y3, F830A); test: Agonist activation, patch clamp, HEK293T; assay type: cell-based; conditions: read-out: EC50_Capsaicin
Chain of mV1 F830A (Q704Y3 whole entry F830A): as the sequence (Q704Y3 whole entry S833A) above, with F830A, A833S counted along it

pV1_241 (ANAP) = pV1_241 (ANAP) (Ornithorhynchus anatinus, UniProt F7A7B4); test: Agonist activation of ANAP-incorporated channel, patch clamp; assay type: cell-based, platypus
Chain of pV1_241 (ANAP) (F7A7B4 1-842): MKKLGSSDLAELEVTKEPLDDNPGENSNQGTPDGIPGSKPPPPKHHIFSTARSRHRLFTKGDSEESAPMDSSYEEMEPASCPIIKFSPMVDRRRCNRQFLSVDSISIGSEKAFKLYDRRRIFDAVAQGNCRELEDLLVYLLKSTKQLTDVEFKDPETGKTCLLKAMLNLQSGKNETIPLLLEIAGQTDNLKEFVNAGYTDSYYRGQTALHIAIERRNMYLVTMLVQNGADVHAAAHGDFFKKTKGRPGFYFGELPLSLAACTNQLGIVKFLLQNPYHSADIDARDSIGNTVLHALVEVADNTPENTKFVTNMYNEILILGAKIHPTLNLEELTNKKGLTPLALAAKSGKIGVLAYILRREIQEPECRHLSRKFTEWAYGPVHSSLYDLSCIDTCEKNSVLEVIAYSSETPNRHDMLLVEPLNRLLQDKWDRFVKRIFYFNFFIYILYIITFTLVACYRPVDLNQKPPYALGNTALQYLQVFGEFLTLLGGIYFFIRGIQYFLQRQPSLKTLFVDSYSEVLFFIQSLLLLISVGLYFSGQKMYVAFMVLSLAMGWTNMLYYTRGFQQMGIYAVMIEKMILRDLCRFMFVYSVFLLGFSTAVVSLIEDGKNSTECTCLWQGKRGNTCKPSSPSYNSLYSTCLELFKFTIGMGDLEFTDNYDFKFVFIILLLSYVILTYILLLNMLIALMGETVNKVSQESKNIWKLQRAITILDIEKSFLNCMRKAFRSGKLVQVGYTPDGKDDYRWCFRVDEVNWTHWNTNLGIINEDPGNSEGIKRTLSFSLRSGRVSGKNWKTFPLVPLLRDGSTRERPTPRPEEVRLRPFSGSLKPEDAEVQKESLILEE

`COc1cc(CNC(=O)CCCC/C=C/C(C)C)ccc1O` [Capsaicin, capsaicin] gave a pEC50 (mV1_654 (ANAP)) of 6.52, an EC50_Capsaicin (mV1_654 (ANAP); replicate 1) of 0.324 µM and an EC50_Capsaicin (mV1_654 (ANAP); replicate 2) of 0.298 µM. For the same compound, the EC50_Capsaicin (mV1_654 (ANAP); replicate 3) was 0.284 µM, the EC50_Capsaicin (mV1_654 (ANAP); replicate 4) was 0.31 µM and the EC50_Capsaicin (mV1_654 (ANAP); replicate 5) was 0.267 µM. For the same compound, the EC50_Capsaicin (mV1_654 (ANAP); replicate 6) was 0.341 µM, the “capsaicin sensitivity of heat-desensitized rTRPV1” value (rTRPV1) was “insensitive” and the pEC50 (mV1 CΔ28 (Ala800-Ala827); mean ± s.e.m., n = 3) was 6.46. The EC50 (mV1 CΔ28 (Ala800-Ala827); replicate 1) was 0.256 µM, the EC50 (mV1 CΔ28 (Ala800-Ala827); replicate 2) was 0.365 µM and the EC50 (mV1 CΔ28 (Ala800-Ala827); replicate 3) was 0.408 µM. The “effect of capsaicin administration” value (TRPV1) was “a burning sensation and acute drop in body core temperature (hypothermia)”, the pEC50 (mV1_241 (ANAP)) was 6.54 and the EC50_Capsaicin (mV1_241 (ANAP); replicate 1) was 0.256 µM. It also gave an EC50_Capsaicin (mV1_241 (ANAP); replicate 2) of 0.283 µM, an EC50_Capsaicin (mV1_241 (ANAP); replicate 3) of 0.296 µM and an EC50_Capsaicin (mV1_241 (ANAP); replicate 4) of 0.299 µM. For the same compound, the EC50_Capsaicin (mV1_241 (ANAP); replicate 5) was 0.316 µM, the pEC50 (mV1 S833A; mean ± s.e.m., n = 3) was 6.46 and the EC50 (mV1 S833A; replicate 1) was 0.361 µM. The EC50 (mV1 S833A; replicate 2) was 0.282 µM, the EC50 (mV1 S833A; replicate 3) was 0.389 µM and the pEC50 (mV1 K831A; mean ± s.e.m., n = 3) was 6.45. It also gave an EC50 (mV1 K831A; replicate 1) of 0.417 µM, an EC50 (mV1 K831A; replicate 2) of 0.355 µM and an EC50 (mV1 K831A; replicate 3) of 0.29 µM. The pEC50 (mV1_579 (ANAP)) was 6.53, the EC50_Capsaicin (mV1_579 (ANAP); replicate 2) was 0.297 µM and the pEC50 (Camel TRPV1; mean ± s.e.m., n = 5) was 6.27. For the same compound, the EC50 (Camel TRPV1; replicate 1) was 0.445 µM, the EC50 (Camel TRPV1; replicate 2) was 0.443 µM and the EC50 (Camel TRPV1; replicate 3) was 0.562 µM. The EC50 (Camel TRPV1; replicate 4) was 0.619 µM, the EC50 (Camel TRPV1; replicate 5) was 0.631 µM and the pEC50 (pV1_mC chimera; mean ± s.e.m., n = 6) was 6.51. For the same compound, the EC50 (pV1_mC chimera; replicate 3) was 0.388 µM, the EC50 (pV1_mC chimera; replicate 4) was 0.257 µM and the EC50 (pV1_mC chimera; replicate 5) was 0.354 µM. The EC50 (pV1_mC chimera; replicate 6) was 0.3 µM, the pEC50 (mV1_648 (ANAP)) was 6.53 and the EC50_Capsaicin (mV1_648 (ANAP); replicate 1) was 0.301 µM. For the same compound, the EC50_Capsaicin (mV1_648 (ANAP); replicate 2) was 0.286 µM, the EC50_Capsaicin (mV1_648 (ANAP); replicate 3) was 0.312 µM and the EC50_Capsaicin (mV1_648 (ANAP); replicate 5) was 0.289 µM. It also gave a pEC50 (mV1 E838A; mean ± s.e.m., n = 3) of 6.25, an EC50 (mV1 E838A; replicate 1) of 0.66 µM and an EC50 (mV1 E838A; replicate 2) of 0.597 µM. For the same compound, the EC50 (mV1 E838A; replicate 3) was 0.438 µM, the pEC50 (mouse TRPV1 (mV1); Supp Table 1 data, replicate 1) was 6.60 and the pEC50 (mouse TRPV1 (mV1); Supp Table 1 data, replicate 2) was 6.52. For the same compound, the pEC50 (mouse TRPV1 (mV1); Supp Table 2 data, replicate 1) was 6.56, the pEC50 (mouse TRPV1 (mV1); Supp Table 2 data, replicate 2) was 6.52 and the pEC50 (mouse TRPV1 (mV1); Supp Table 3 data, replicate 1) was 6.56. It also gave a pEC50 (mouse TRPV1 (mV1); Supp Table 3 data, replicate 2) of 6.51, a pEC50 (mouse TRPV1 (mV1); Supp Table 3 data, replicate 3) of 6.50 and a pEC50 (mouse TRPV1 (mV1); Supp Table 4 data, replicate 1) of 6.53. For the same compound, the pEC50 (mouse TRPV1 (mV1); Supp Table 4 data, replicate 2) was 6.55, the pEC50 (mouse TRPV1 (mV1); Supp Table 4 data, replicate 3) was 6.49 and the pEC50 (Polar bear TRPV1; mean ± s.e.m., n = 3) was 6.50. The EC50 (Polar bear TRPV1; replicate 1) was 0.262 µM, the EC50 (Polar bear TRPV1; replicate 2) was 0.336 µM and the EC50 (Polar bear TRPV1; replicate 3) was 0.341 µM. For the same compound, the pEC50 (mV1 F830A; mean ± s.e.m., n = 3) was 6.47, the EC50 (mV1 F830A; replicate 1) was 0.286 µM and the EC50 (mV1 F830A; replicate 2) was 0.398 µM. For the same compound, the EC50 (mV1 F830A; replicate 3) was 0.33 µM, the EC50_Capsaicin (pV1_241 (ANAP); replicate 3) was 0.288 µM and the EC50_Capsaicin (pV1_241 (ANAP); replicate 5) was 0.322 µM. For the same compound, the EC50_Capsaicin (pV1_241 (ANAP); replicate 6) was 0.342 µM.
